Laboratory results: US20160082130A1, “Dosage Forms and Methods for Diagnosing Sympathetic Nervous System Dysfunction” (priority 2014, published 2016)

Columns and labels:
healthy subjects = assay: apraclonidine 0.05% eye drop test in healthy control subjects (digital photographs, Image-J); type: in vivo, human
Text: (§1) Patients with a diagnosis of GBS based on history and clinical exam were recruited for this study. Patients with diabetes were excluded from the study. Patients on medications or eye drops with either sympathetic or parasympathetic action were also excluded from the study. […] All patients had electrophysiological studies done in terms of nerve conduction studies at the time of their diagnosis. Patients on opioid therapy were not excluded. In total, five patients met the criteria for inclusion. Healthy control participants were recruited in outpatient clinics from partners and family members accompanying a person with an appointment. Participants with diabetes, ocular disease, previous ocular surgeries, and on sympathetic or parasympathetic medications or eye drops were also excluded from the study. Digital photographs of the subjects' eyes were obtained prior to the application of apraclonidine. A small pre-measured reference was used at the time of photography to help quantify measurements. Apraclonidine (0.05% drop) was added to the left eye and a follow up photograph was obtained some time (19-52 min) after the application of the drop. The digital photographs were analyzed with Image-J software (Schneider, C. A., et al., Nat. Methods 9:671-675, 2012) to determine pupillary diameter and palpebral fissure heights. Standard deviation of the measurements for error propagation was determined by repeated computer measurement of the pre-measured reference in a digital photograph. Palpebral fissure height was determined by measuring the vertical distance between the eyelids with the measurement going through the centre of each pupil. Pupillary diameter was determined with two measurements (horizontal and vertical) and an average denoted as OS or OD used for each pupil for further calculations. Pupillary response was quantified with the percentage ratio (D2−D1)/D1×100, where D1 and D2 represent the baseline anisocoria (D1=OS−OD) and the drug-induced anisocoria (D2=OS*−OD*) respectively.

[1] = tested on: patients with a diagnosis of GBS; assay: apraclonidine 0.05% eye drop test in patients with Guillain-Barré syndrome (digital photographs, Image-J); type: in vivo, human
Text: as §1

In the case of `Nc1cc(Cl)c(NC2=NCCN2)c(Cl)c1` [apraclonidine, 2,6-dichloro-N-(4,5-dihydro-1H-imidazol-2-yl)benzene-1,4-diamine], the “effect on pupillary diameter” value (healthy subjects; healthy subjects, 0.05% drop to one eye) is reported as “no significant effect”, the “effect on the pupils” value (healthy subjects; healthy subjects, analysis of digital photographs) is reported as “either no effect or caused paradoxical miosis of the pupil” and the “effect on palpebral fissure height” value (healthy subjects; normal individuals, 0.05% drop to one eye) is reported as “did not have any significant effect”. For the same compound, the “amplification of palpebral fissure height difference after application” value ([1]; GBS patients with only ptosis, computer analysis of digital photographs) was 1130% (±80%), the “amplification of anisocoria after administration” value ([1]; GBS patients with pupillary dysfunction, (D2-D1)/D1x100) was 1124% (±324%) and the “unmasking of bilateral ptosis” value ([1]; five GBS patients, 0.05% drop to left eye, photograph 19-52 min after) was “unmasked bilateral ptosis in all five GBS patients”. For the same compound, the “unmasking of bilateral Horner's syndrome with dilation of miotic pupil” value ([1]; five GBS patients, 0.05% drop to one eye) was “unmasked bilateral Horner's syndrome with dilation of miotic pupil in two of the five patients” and the “unmasking of reverse ptosis of the lower eyelid” value ([1]; photographic evidence from the subjects in this study) was “unmasks a reverse ptosis of the lower eyelid”.
